The source made the active and inactive calls. No cut-off for these calls is given here.

For experiment [1], the system named is Mus musculus. In words: Anti-inflammatory activity against zymosan A-induced Sabra mouse model assessed as reduction in paw swelling at 5 to 25 mg/kg, ip measured after 6 hrs. The class given is functional, organism-based. To be noted: dose 5-25 mg/kg.
The subject of experiment [2] is Mus musculus. In words: Anti-inflammatory activity against zymosan A-induced Sabra mouse model assessed as reduction in […] at 5 to 25 mg/kg, ip measured after 6 hrs. Particulars: dose 5-25 mg/kg. The class given is functional, organism-based.
For experiment [3], the system named is Mus musculus. In words: Anti-inflammatory activity against zymosan A-induced Sabra mouse model assessed as reduction in TNF-alpha level administered intraperitoneally and measured after 24 hrs by ELISA analysis. Type of experiment: functional, organism-based. Particulars: route ip. Background: An ELISA detects its analyte on a solid surface through an enzyme-linked reagent.

For experiment [4], the system named is Mus musculus. The experiment can be described thus: Anti-inflammatory activity against zymosan A-induced Sabra mouse model assessed as reduction in paw swelling at 5 to 50 mg/kg, ip measured after 6 hrs. Type of experiment: functional, organism-based. Particulars: dose 5-50 mg/kg.
The test system of experiment [5] is Mus musculus. In words: Anti-inflammatory activity against zymosan A-induced Sabra mouse model assessed as reduction in pain sensation at 5 to 50 mg/kg, ip measured after 6 hrs. To be noted: dose 5-50 mg/kg. The class given is functional, organism-based.
Experiment [6] concerns Mus musculus. The experiment can be described thus: Anti-inflammatory activity against zymosan A-induced Sabra mouse model assessed as reduction in TNF-alpha level at 5 to 50 mg/kg, ip measured after 24 hrs by ELSA analysis. The class given is functional, organism-based. To be noted: dose 5-50 mg/kg.
Experiment [7] has as its system Mus musculus. The experiment can be described thus: Anti- inflammatory activity against C57BL/6 mouse model of LPS-induced peritonitis assessed as reduction in plasma IL-1beta level at 5 mg/kg, ip pre-administered for 60 mins followed by LPS-stimulation and measured after 90 mins by ELISA analysis. The class given is functional, organism-based. To be noted: time 150.0 min.

The test system of experiment [8] is Mus musculus. The experiment can be described thus: Anti- inflammatory activity against C57BL/6 mouse model of LPS-induced peritonitis assessed as reduction in plasma TNF alpha level at 5 mg/kg, ip pre-administered for 60 mins followed by LPS-stimulation and measured after 90 mins by ELISA analysis. The class given is functional, organism-based. To be noted: time 150.0 min.

The test system of experiment [9] is Mus musculus. The experiment can be described thus: Anti-inflammatory activity against zymosan A-induced Sabra mouse model assessed as reduction in TNF-alpha level at 5 to 25 mg/kg, ip measured after 24 hrs by ELISA analysis. To be noted: dose 5-25 mg/kg. The class given is functional, organism-based.
Experiment [10] has as its system Mus musculus. The experiment can be described thus: Anti- inflammatory activity against C57BL/6 mouse model of LPS-induced peritonitis assessed as reduction in plasma IL-6 level at 5 mg/kg, ip pre-administered for 60 mins followed by LPS-stimulation and measured after 90 mins by ELISA analysis. Type of experiment: functional, organism-based. Particulars: time 150.0 min.

For experiment [11], the system named is Mus musculus. In words: Anti-inflammatory activity against zymosan A-induced Sabra mouse model assessed as reduction in TNF-alpha level at 10 to 25 mg/kg, ip measured after 24 hrs by ELISA analysis. Particulars: dose 10-25 mg/kg. Type of experiment: functional, organism-based.
Experiment [12] concerns Mus musculus. In words: Anti-inflammatory activity against zymosan A-induced Sabra mouse model assessed as reduction in pain sensation at 10 to 25 mg/kg, ip measured after 6 hrs. Type of experiment: functional, organism-based. To be noted: dose 10-25 mg/kg.
The test system of experiment [13] is Mus musculus. In words: Anti- inflammatory activity against C57BL/6 mouse model of LPS-induced peritonitis assessed as reduction in plasma IL-6 level at 10 mg/kg, ip pre-administered for 60 mins followed by LPS-stimulation and measured after 90 mins by ELISA analysis. Type of experiment: functional, organism-based. Particulars: time 150.0 min.
Experiment [14] relates to Mus musculus. The experiment can be described thus: Anti- inflammatory activity against C57BL/6 mouse model of LPS-induced peritonitis assessed as reduction in plasma IL-1beta level at 10 mg/kg, ip pre-administered for 60 mins followed by LPS-stimulation and measured after 90 mins by ELISA analysis. The class given is functional, organism-based. Particulars: time 150.0 min.

Experiment [15] has as its system Mus musculus. In words: Anti-inflammatory activity against zymosan A-induced Sabra mouse model assessed as reduction in paw swelling at 10 to 25 mg/kg, ip measured after 6 hrs. Type of experiment: functional, organism-based. To be noted: dose 10-25 mg/kg.
Experiment [16] relates to Mus musculus. The experiment can be described thus: Anti- inflammatory activity against C57BL/6 mouse model of LPS-induced peritonitis assessed as reduction in plasma TNF alpha level at 10 mg/kg, ip pre-administered for 60 mins followed by LPS-stimulation and measured after 90 mins by ELISA analysis. The class given is functional, organism-based. To be noted: time 150.0 min.

The test system of experiment [17] is BMDM. In words: Inhibition of IL-1beta protein expression in LPS-stimulated human bone-marrow derived macrophage cells at 5 uM preincubated with compound for 3 hrs followed by LPS stimulation for 3 hrs and measured 30 mins after ATP addition by ELISA analysis. The class given is functional, cell-based. Particulars: time 6.5 hrs.
In experiment [18] the test system is BMDM. The experiment can be described thus: Inhibition of IL-1beta mRNA expression in LPS-stimulated human bone-marrow derived macrophage cells at 5 uM preincubated with compound for 3 hrs followed by LPS stimulation for 3 hrs and measured 30 mins after ATP addition by qRT-PCR analysis. Type of experiment: functional, cell-based. Particulars: time 6.5 hrs. Background: Real-time PCR tracks product formation cycle by cycle.

In experiment [19] the test system is Mus musculus. The experiment can be described thus: Anti-inflammatory activity against zymosan A-induced Sabra mouse model assessed as reduction in pain sensation administered intraperitoneally and measured after 6 hrs. Type of experiment: functional, organism-based. To be noted: dose 5-50 mg/kg, route ip.

In the case of `C=C(C)[C@@H]1CCC(C)=C[C@H]1c1c(O)cc(O)c(C)c1CCCCC`, the result with Mus musculus [1] and in the experiment on Mus musculus [2] was Active. For the same molecule, the Activity entry in the experiment on Mus musculus [3] was “Dose-Dependent Effect”.
Take `C=C(C)[C@@H]1CCC(C)=C[C@H]1c1c(O)cc(CCCCC)c(C)c1O`: the result in the experiment with Mus musculus [4], in the experiment on Mus musculus [5] and with Mus musculus [6] was Active.
As for `CCCCCc1cc(O)c(C/C=C(\C)CCC=C(C)C)c(O)c1C`, the result in the experiment on Mus musculus [1], in the experiment with Mus musculus [7], in the experiment with Mus musculus [9] and with Mus musculus [2] was Active. Moreover, the result in the experiment with Mus musculus [8] and in the experiment on Mus musculus [10] was inactive.
On to `C=C(C)[C@@H]1CCC(C)=C[C@H]1c1c(OC)cc(CCCCC)c(C)c1OC`, for which the outcome with Mus musculus [11], in the experiment on Mus musculus [12], with Mus musculus [15] and with Mus musculus [16] was Active. Besides, the outcome in the experiment on Mus musculus [13] and with Mus musculus [14] was inactive.
Turning to `CCCCCc1cc(OC)c(C/C=C(\C)CCC=C(C)C)c(OC)c1C`, the result with Mus musculus [4], in the experiment with Mus musculus [5] and in the experiment with Mus musculus [6] was Active.
For the molecule `CCCCCc1cc(O)c([C@@H]2C=C(C)CC[C@H]2C(C)C)c(O)c1C`, the result in the experiment with Mus musculus [11], with Mus musculus [7], in the experiment with Mus musculus [8], in the experiment on Mus musculus [12] and with Mus musculus [15] was Active. The inhibition result in the experiment with BMDM [17] and in the experiment with BMDM [18] was “Active” each time. For the same molecule, in the experiment on Mus musculus [10], the result was inactive.
As for `C=C(C)[C@@H]1CCC(C)=C[C@H]1c1c(O)c(C)c(CCCCC)c(C)c1O`, the outcome in the experiment on Mus musculus [4] and with Mus musculus [6] was Active. Further, the Activity result in the experiment with Mus musculus [19] was “Dose-Dependent Effect”.

For the origin of these results see ChEMBL document CHEMBL5380864, “Novel Synthesis of C-Methylated Phytocannabinoids Bearing Anti-inflammatory Properties” (J Med Chem, 2023).
